Blank lines part the entries; values can stand above or below the compound they belong to.
Key:
Type in all cases: biochemical
[1] = target: T1, LRRK2 (G2019S mutation, GST-LRRK2 (amino acids 970-2527)) (Homo sapiens, UniProt Q5S007, G2019S); experiment: LRRK2 Km ATP LanthaScreen Assay; settings: mean IC50
T1 construct: GST-LRRK2 (amino acids 970-2527); GST (N); purchased Life Technologies Corporation
Description: Unless otherwise noted, all LRRK2 IC50 data presented in tables refers to the LRRK2 Km ATP LanthaScreen™ Assay that is described in the Biological Assay section.
The data presented for the 5 mM and Km ATP LanthaScreen™ Assay represents mean IC50 values based on several test results and may have reasonable. deviations depending on the specific conditions and reagents used. Reagents for the LRRK2 5 mM and Km ATP LanthaScreen™ Assay were purchased from Life Technologies Corporation.
• a) 400 nl of a 1:2.15 serial dilution of test compound (98 μM top assay concentration) is spotted via Labcyte Echo to certain wells in a 384 well black, untreated plate. Control wells contain 400 nl of either DMSO or 400 nl of a known inhibitor in DMSO. • b) 10 μl of a 2.5 nM LRRK2 (G2019S mutation, GST-LRRK2 (amino acids 970-2527)) enzyme solution in 1× assay buffer (50 mM Tris pH 8.5, 10 mM MgCl2, 0.01% Brij-35, 1.0 mM EGTA, 2 mM DTT, 0.05 mM NaVO4) is added to all wells. • c) A 30 minute room temperature incubation is followed by addition of 10 μl […]) After a 35 minute room temperature incubation, 20 μl of TR-FRET Dilution Buffer (Invitrogen PV3756B) containing 4 nM Tb-labeled anti-phospho LRRKtide antibody and 20 mM EDTA is added to all wells. • e) Plates are incubated at room temperature for 1 hour and read on an Envision™ multi-mode plate reader with LanthaScreen™ settings. Results are analysed using Assay Data Analyzer. […] Results are analysed using Assay Data Analyzer.

[2] = target: T2, AURKB (Aurora B) (Homo sapiens, UniProt Q96GD4); experiment: Kinase selectivity, Z'-LYTE platform; settings: 1 micromolar compound, read-out: percent inhibition AURKB (Aurora B)
T2 construct: purchased Life Technologies Corporation
T2 sequence (Q96GD4 whole entry): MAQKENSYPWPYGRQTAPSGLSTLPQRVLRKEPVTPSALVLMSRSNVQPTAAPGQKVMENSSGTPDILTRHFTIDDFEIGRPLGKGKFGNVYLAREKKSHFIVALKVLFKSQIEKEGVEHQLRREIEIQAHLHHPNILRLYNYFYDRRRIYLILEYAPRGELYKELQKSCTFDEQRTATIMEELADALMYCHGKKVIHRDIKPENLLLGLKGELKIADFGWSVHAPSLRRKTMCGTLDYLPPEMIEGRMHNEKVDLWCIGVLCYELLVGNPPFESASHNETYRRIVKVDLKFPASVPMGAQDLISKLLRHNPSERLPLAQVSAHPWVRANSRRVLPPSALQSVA

[3] = target: T3, BRAF V599E (Homo sapiens, UniProt P15056, V600E); experiment: Kinase selectivity, Z'-LYTE platform; settings: 1 micromolar compound, read-out: percent inhibition BRAF V599E
T3 construct: purchased Life Technologies Corporation

[4] = target: T4, MAPK1 (ERK2) (Homo sapiens, UniProt P28482); experiment: Kinase selectivity, Z'-LYTE platform; settings: 1 micromolar compound, read-out: percent inhibition MAPK1 (ERK2)
T4 construct: purchased Life Technologies Corporation
T4 sequence (P28482 whole entry): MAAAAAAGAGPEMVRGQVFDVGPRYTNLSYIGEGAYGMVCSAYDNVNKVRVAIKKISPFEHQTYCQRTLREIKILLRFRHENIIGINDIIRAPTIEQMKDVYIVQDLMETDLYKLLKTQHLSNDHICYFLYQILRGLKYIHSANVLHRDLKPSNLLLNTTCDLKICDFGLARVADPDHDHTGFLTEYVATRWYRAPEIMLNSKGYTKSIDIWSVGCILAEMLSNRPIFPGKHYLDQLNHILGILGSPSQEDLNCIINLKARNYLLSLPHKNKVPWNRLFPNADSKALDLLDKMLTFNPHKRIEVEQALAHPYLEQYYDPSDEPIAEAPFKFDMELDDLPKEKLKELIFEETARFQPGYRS

[5] = target: T5, CHEK2 (CHK2) (Homo sapiens, UniProt O96017); experiment: Kinase selectivity, Z'-LYTE platform; settings: 1 micromolar compound, read-out: percent inhibition CHEK2 (CHK2)
T5 construct: purchased Life Technologies Corporation
T5 sequence (O96017 whole entry): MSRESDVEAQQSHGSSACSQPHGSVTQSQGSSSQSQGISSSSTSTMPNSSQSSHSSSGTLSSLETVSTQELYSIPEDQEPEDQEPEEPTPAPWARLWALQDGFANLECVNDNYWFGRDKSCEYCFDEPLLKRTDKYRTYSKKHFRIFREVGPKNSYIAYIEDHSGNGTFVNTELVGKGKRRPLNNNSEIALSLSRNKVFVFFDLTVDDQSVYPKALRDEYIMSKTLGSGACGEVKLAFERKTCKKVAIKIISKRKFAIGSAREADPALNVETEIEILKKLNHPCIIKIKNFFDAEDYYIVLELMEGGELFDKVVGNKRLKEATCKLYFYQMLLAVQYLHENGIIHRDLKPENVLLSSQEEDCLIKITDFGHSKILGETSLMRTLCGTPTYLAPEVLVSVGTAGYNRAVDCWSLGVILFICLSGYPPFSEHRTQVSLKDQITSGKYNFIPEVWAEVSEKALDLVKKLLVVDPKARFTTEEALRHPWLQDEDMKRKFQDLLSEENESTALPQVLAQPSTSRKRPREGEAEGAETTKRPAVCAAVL

[6] = target: T6, IRAK1 (Homo sapiens, UniProt P51617); experiment: Kinase selectivity, Adapta platform; settings: 1 micromolar compound, read-out: percent inhibition IRAK1
T6 construct: purchased Life Technologies Corporation
T6 sequence (P51617 whole entry): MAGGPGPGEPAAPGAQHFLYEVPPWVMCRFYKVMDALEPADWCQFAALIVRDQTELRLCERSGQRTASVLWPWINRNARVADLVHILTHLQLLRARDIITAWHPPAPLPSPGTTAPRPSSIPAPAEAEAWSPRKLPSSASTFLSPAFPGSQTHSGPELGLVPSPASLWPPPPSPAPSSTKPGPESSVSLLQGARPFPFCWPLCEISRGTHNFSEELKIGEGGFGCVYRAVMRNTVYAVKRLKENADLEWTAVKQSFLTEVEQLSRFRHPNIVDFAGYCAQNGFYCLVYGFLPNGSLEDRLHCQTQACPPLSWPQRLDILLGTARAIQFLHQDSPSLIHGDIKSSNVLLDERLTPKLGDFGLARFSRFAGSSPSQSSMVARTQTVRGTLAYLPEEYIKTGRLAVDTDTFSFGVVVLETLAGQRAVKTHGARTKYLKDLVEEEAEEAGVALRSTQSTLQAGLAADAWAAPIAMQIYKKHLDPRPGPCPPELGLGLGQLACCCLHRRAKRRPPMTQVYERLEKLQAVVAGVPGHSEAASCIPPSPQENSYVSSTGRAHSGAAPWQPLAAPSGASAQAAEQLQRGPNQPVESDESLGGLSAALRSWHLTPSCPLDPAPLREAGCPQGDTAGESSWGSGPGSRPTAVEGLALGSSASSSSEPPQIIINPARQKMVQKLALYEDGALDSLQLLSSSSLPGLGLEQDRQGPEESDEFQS

[7] = target: T7, CDK1/cyclin B (Homo sapiens, UniProt P06493); experiment: Kinase selectivity, Z'-LYTE platform; settings: 1 micromolar compound, read-out: percent inhibition CDK1/cyclin B
T7 construct: purchased Life Technologies Corporation

[8] = target: T8, DYRK1A (Homo sapiens, UniProt Q13627); experiment: Kinase selectivity, Z'-LYTE platform; settings: 1 micromolar compound, read-out: percent inhibition DYRK1A
T8 construct: purchased Life Technologies Corporation

[9] = target: T9, MAPK8 (JNK1) (Homo sapiens, UniProt P45983); experiment: Kinase selectivity, Z'-LYTE platform; settings: 1 micromolar compound, read-out: percent inhibition MAPK8 (JNK1)
T9 construct: purchased Life Technologies Corporation
T9 sequence (P45983 whole entry): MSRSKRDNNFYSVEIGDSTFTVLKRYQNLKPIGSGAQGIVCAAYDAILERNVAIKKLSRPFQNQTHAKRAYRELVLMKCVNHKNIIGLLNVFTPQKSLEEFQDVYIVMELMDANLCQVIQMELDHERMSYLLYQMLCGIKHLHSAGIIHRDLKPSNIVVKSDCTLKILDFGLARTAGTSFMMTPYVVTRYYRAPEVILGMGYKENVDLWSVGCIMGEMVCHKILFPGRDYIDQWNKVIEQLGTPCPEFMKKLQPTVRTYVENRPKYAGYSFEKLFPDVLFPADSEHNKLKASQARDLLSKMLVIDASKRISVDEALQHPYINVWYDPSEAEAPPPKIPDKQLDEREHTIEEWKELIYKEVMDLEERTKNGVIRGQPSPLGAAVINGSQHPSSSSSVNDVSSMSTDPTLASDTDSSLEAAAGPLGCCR

[10] = target: T10, CLK2 (Homo sapiens, UniProt P49760); experiment: Kinase selectivity, Z'-LYTE platform; settings: 1 micromolar compound, read-out: percent inhibition CLK2
T10 construct: purchased Life Technologies Corporation
T10 sequence (P49760 whole entry): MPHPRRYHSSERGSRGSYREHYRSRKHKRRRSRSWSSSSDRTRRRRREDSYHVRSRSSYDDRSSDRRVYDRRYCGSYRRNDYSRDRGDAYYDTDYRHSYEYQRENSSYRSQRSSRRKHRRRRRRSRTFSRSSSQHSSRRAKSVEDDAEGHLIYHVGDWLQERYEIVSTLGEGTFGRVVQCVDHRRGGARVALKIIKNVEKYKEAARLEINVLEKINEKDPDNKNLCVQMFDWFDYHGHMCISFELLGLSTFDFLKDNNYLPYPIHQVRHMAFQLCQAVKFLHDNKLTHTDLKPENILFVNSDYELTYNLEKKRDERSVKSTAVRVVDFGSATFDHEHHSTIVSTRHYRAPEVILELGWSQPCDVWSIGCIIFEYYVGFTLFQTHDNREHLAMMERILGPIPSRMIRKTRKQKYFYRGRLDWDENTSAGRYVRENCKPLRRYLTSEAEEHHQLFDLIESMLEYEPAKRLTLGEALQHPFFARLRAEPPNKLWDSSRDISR

[11] = target: T11, JAK3 (Homo sapiens, UniProt P52333); experiment: Kinase selectivity, Z'-LYTE platform; settings: 1 micromolar compound, read-out: percent inhibition JAK3
T11 construct: purchased Life Technologies Corporation
T11 sequence (P52333 1-1124): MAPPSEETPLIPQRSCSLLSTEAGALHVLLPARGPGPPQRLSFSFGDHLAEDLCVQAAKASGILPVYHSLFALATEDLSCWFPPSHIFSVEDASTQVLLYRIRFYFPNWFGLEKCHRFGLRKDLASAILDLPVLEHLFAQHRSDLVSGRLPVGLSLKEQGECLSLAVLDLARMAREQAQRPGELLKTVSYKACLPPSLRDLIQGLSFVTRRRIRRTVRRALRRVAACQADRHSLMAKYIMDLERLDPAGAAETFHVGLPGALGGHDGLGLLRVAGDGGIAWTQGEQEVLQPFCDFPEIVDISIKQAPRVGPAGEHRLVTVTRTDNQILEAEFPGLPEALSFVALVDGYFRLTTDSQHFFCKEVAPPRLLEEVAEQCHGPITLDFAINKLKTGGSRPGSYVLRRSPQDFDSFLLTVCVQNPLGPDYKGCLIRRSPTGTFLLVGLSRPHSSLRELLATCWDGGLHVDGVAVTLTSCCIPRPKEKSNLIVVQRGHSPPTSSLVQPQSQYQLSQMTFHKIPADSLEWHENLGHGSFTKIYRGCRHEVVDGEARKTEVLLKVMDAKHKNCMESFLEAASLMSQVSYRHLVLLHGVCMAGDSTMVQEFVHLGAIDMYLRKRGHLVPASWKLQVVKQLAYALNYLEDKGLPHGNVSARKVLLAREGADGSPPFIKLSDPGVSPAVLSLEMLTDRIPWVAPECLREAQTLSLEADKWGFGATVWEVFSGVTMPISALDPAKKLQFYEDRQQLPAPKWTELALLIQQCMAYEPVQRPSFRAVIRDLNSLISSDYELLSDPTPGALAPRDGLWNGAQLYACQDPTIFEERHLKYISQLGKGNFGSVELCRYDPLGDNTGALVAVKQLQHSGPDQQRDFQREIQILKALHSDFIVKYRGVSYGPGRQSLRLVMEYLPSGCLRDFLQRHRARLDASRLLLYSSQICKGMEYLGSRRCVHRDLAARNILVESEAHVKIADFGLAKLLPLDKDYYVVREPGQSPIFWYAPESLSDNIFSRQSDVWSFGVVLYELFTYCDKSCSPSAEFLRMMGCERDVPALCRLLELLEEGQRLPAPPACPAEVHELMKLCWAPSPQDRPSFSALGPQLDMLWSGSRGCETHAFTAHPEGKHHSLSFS

T1 sequence (Q5S007 970-2527 G2019S): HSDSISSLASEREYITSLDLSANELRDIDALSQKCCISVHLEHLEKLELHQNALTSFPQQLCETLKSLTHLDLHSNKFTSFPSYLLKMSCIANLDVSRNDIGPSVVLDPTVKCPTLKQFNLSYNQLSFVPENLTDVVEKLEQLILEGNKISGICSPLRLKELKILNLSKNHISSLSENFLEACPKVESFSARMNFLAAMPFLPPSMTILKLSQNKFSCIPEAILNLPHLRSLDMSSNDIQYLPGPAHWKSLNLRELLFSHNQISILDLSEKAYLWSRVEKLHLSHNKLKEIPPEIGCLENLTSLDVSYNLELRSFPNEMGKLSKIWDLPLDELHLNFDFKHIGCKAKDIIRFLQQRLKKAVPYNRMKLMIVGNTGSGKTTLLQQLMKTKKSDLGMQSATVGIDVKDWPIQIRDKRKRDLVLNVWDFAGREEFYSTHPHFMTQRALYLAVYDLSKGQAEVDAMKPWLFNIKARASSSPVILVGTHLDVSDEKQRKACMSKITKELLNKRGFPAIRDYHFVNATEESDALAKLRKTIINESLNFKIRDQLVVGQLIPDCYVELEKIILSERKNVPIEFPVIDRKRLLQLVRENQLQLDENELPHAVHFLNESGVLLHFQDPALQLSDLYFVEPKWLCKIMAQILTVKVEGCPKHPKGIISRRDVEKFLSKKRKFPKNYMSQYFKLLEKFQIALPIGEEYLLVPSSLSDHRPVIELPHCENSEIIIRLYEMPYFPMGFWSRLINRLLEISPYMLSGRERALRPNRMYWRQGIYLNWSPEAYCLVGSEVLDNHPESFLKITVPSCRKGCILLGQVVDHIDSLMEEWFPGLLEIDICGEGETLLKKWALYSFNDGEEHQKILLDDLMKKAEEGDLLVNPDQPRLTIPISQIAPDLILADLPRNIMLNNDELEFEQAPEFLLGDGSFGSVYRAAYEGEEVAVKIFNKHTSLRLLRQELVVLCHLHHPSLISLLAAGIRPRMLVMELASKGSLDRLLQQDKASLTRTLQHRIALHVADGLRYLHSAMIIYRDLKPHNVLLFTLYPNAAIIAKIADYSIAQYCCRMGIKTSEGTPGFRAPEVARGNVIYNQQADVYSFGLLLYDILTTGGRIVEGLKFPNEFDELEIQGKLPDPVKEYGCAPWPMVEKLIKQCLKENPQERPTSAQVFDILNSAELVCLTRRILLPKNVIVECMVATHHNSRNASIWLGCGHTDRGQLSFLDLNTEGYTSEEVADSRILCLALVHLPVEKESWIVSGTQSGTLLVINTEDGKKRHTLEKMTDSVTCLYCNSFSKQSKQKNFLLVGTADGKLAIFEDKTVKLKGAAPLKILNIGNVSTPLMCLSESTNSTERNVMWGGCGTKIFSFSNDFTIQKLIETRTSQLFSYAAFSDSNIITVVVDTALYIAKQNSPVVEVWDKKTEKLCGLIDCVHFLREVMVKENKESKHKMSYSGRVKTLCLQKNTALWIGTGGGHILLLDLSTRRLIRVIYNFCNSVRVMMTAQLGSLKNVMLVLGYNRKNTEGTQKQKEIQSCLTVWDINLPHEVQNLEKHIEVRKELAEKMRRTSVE

IC50 [1]: 0.6 nM
Structure (SMILES): CN1CCN(c2cc(-c3n[nH]c4ccc(OC5(C)CC5)cc34)ccn2)CC1 [Example 32]

IC50 [1]: 1 nM
Structure (SMILES): CN1CCN(c2cc(-c3n[nH]c4ccc(OC5(C)CC5)cc34)ccn2)CC1=O [Example 33]

IC50 [1]: 0.7 nM
Structure (SMILES): C[C@H]1[C@H](O)[C@@H](O)CN1c1cc(-c2n[nH]c3ccc(OC4(C)CC4)cc23)ccn1 [Example 34]

IC50 [1]: 1.1 nM
Structure (SMILES): C[C@H]1[C@H](N)[C@@H](O)CN1c1cc(-c2n[nH]c3ccc(OC4(C)CC4)cc23)ccn1 [Example 35]

IC50 [1]: 2 nM
Structure (SMILES): CC1(Oc2ccc3[nH]nc(-c4ccnc(N5CC[C@@H](N)C5)c4)c3c2)CC1 [Example 36]

IC50 [1]: 2.6 nM
Structure (SMILES): CC1(Oc2ccc3[nH]nc(-c4ccnc(N5CC[C@H](N)C5)c4)c3c2)CC1 [Example 37]

More lines, now with the values behind:

Structure (SMILES): FC1(F)CCCN(c2cc(-c3n[nH]c4ccc(OC5CC5)cc34)ccn2)C1 [Example 20]
IC50 [1]: 22 nM

Structure (SMILES): FC1(F)CCN(c2cc(-c3n[nH]c4ccc(OC5CC5)cc34)ccn2)C1 [Example 21]
IC50 [1]: 19 nM

Structure (SMILES): CO[C@H]1CCN(c2cc(-c3n[nH]c4ccc(OC5CC5)cc34)ccn2)C1 [Example 22]
IC50 [1]: 17 nM

Structure (SMILES): O[C@H]1CCN(c2cc(-c3n[nH]c4ccc(OC5CC5)cc34)ccn2)C1 [Example 24]
IC50 [1]: 29 nM

Structure (SMILES): FC1(F)CN(c2cc(-c3n[nH]c4ccc(OC5CC5)cc34)ccn2)C1 [Example 25]
IC50 [1]: 40 nM

Structure (SMILES): CC1(Oc2ccc3[nH]nc(-c4ccnc(N5CCOCC5)c4)c3c2)CC1 [Example 27]
inhibition at 1 µM [2]: 15%
inhibition at 1 µM [3]: 29%
inhibition at 1 µM [4]: 23%
inhibition at 1 µM [5]: 14%
IC50 [1]: 0.6 nM
inhibition at 1 µM [6]: 18%
inhibition at 1 µM [7]: 33%
inhibition at 1 µM [8]: 6%
inhibition at 1 µM [9]: 61%
inhibition at 1 µM [10]: 46%
inhibition at 1 µM [11]: 56%

Structure (SMILES): C[C@H]1CN(c2cc(-c3n[nH]c4ccc(OC5(C)CC5)cc34)ccn2)CCO1 [Example 28]
inhibition at 1 µM [2]: 11%
inhibition at 1 µM [3]: 19%
inhibition at 1 µM [4]: 23%
inhibition at 1 µM [5]: 4%
IC50 [1]: 0.6 nM
inhibition at 1 µM [6]: -5%
inhibition at 1 µM [7]: 25%
inhibition at 1 µM [8]: 2%
inhibition at 1 µM [9]: 58%
inhibition at 1 µM [10]: 42%
inhibition at 1 µM [11]: 49%

Structure (SMILES): C[C@@H]1CN(c2cc(-c3n[nH]c4ccc(OC5(C)CC5)cc34)ccn2)CCO1 [Example 29]
inhibition at 1 µM [2]: 11%
inhibition at 1 µM [3]: 18%
inhibition at 1 µM [4]: 18%
inhibition at 1 µM [5]: 2%
IC50 [1]: 0.6 nM
inhibition at 1 µM [6]: 8%
inhibition at 1 µM [7]: 26%
inhibition at 1 µM [8]: 4%
inhibition at 1 µM [9]: 54%
inhibition at 1 µM [10]: 53%
inhibition at 1 µM [11]: 46%

Structure (SMILES): C[C@@H]1CN(c2cc(-c3n[nH]c4ccc(OC5(C)CC5)cc34)ccn2)C[C@H](C)O1 [Example 30]
inhibition at 1 µM [2]: 6%
inhibition at 1 µM [3]: 5%
inhibition at 1 µM [4]: 10%
inhibition at 1 µM [5]: 8%
IC50 [1]: 0.9 nM
inhibition at 1 µM [6]: -17%
inhibition at 1 µM [7]: 9%
inhibition at 1 µM [8]: 3%
inhibition at 1 µM [9]: 39%
inhibition at 1 µM [10]: 49%
inhibition at 1 µM [11]: 37%

Structure (SMILES): CC1(Oc2ccc3[nH]nc(-c4ccnc(N5CCN(S(C)(=O)=O)CC5)c4)c3c2)CC1 [Example 31]
IC50 [1]: 0.6 nM

From patent US9688654B2, “Compounds inhibiting leucine-rich repeat kinase enzyme activity” (Merck Sharp & Dohme Corp., priority 2013, dated 2017)
